The structures appear in SMILES notation. Where two headings read alike, the source gives them in different places.

Holding throughout (assay type): cell-based
The subject of test [1] is FaDu CSC. The experiment in a line: Cancer stem cells, Cell Titer-Glo 72 hours (Test Example 3). Conditions: Homo sapiens, FaDu, 72 h. In general terms: In ATP-based viability assays light output follows the ATP content of the culture.
Test [2] concerns ACHN CSC. Described as above. Conditions: Homo sapiens, ACHN, 72 h.
Test [3] concerns p-AMPK Thr172. The experiment in a line: Kinase inhibition, Western blot in HeLa cells (Test Example 5). Conditions: Homo sapiens, 6 hours, DMSO = 100, read-out: p-AMPK Relative Intensity (%). On the procedure:
(§1) HeLa cells were treated with 5 uM of the indicated compound for 6 hours. Following compound incubation, cells were washed twice with ice-cold PBS and lysed in lysis buffer (50 mM HEPES, pH 7.5, 1% Nonidet P40, 150 mM NaCl, 1 mM EDTA, 1× protease inhibitor cocktail (Promega)). 30 micrograms of soluble protein was separated by SDS-PAGE and transferred to PVDF membranes. Primary antibodies against p-AMPK Thr172, p-RPS6 Ser235/236, p-RPS6 Ser240/244, and Tubulin (Cell Signaling Technology) were used. The antigen-antibody complexes were visualized by enhanced chemiluminescence (BioRad). The results are shown below in Tables 17A-17E.
A general note: Immunoblotting shows a protein as a band on a membrane.

The subject of test [4] is p-RPS6 Ser235/236. The description is as above. Conditions: Homo sapiens, 6 hours, DMSO = 100, read-out: p-RPS6 Ser235/236 Relative Intensity (%). The method, then: as §1
Test [5] concerns p-RPS6 Ser240/244. Described as above. Conditions: Homo sapiens, 6 hours, DMSO = 100, read-out: p-RPS6 Ser240/244 Relative Intensity (%). The method, then: as §1
The subject of test [6] is A549. Briefly: Bulk cancer cells, Cell Titer-Glo 72 hours (Test Example 2). The note with it: Homo sapiens. The method, then:
(§2) Tubes of 3× drug (60 uM in 500 uL complete media) were prepared from 5 mM stock solutions in DMSO. […] To treat cells, 50 uL of drug from the dilution plate was removed and added to the cell plates. […] Cells were harvested 72 hours after drug addition using Cell Titer-Glo (Promega) and luminescence measured on a plate reader.

Test [7] concerns ACHN. The description is as above. The note with it: Homo sapiens, ACHN, 72 h. On the procedure: as §2
The subject of test [8] is FaDu. The description is as above. Conditions: Homo sapiens. The method, then: as §2
The subject of test [9] is A549 CSC. Briefly: Cancer stem cells, Cell Titer-Glo 72 hours (Test Example 3). The note with it: Homo sapiens.

One may read the IC50 as the concentration at which inhibition is half-maximal. The low end stands for higher potency, the high end for lower potency. Consider `Cc1nc(-c2ccccc2)oc1-c1ccc2c(c1)NC(=O)/C2=C\c1[nH]c(C)c(C(=O)N2CCN(C)CC2)c1C` [Example 38], for which the half-inhibitory concentration (IC50) in test [1] is 1.6 µM; in test [2], 0.5 µM. Moreover, the activity at 5 µM amounted to 103% in test [3] (5 uM), 2% in test [4] (5 uM) and 21% in test [5] (5 uM).
Consider `CCN(CC)CCNC(=O)c1c(C)[nH]c(/C=C2\C(=O)Nc3ccc(-c4nc(-c5ccccc5)cs4)cc32)c1C` [Example 51, (Z)-N-(2-(diethylamino)ethyl)-2,4-dimethyl-5-((2-oxo-5-(4-phenylthiazol-2-yl)indolin-3-ylidene)methyl)-1H-pyrrole-3-carboxamide], for which the IC50 in test [6] was 4.74 µM; in [7] it was 1.64 µM; in [8] it was 1.18 µM; in test [1] it was 0.27 µM; in test [9] it was 4.28 µM. Moreover, the values for the activity at 5 µM in [3] (5 uM), in test [4] (5 uM) and in [5] (5 uM) were 12%, 21% and 64%, respectively.
Consider `Cc1[nH]c(/C=C2\C(=O)Nc3cccc(-c4ccc(-c5ccccc5)cc4)c32)c(C)c1C(=O)N1CCN(C)CC1` [Example 110], for which the IC50 came out at 21.5 µM in test [6]; 14.9 µM in [7]; 7.56 µM in [8]; 1.21 µM in test [1]; 5.76 µM in test [9]. Further, the activity at 5 µM in test [3] (5 uM) was found to be 105%; in test [4] (5 uM), 2%; in test [5] (5 uM), 36%.
In the case of `COC(=O)c1c(C)[nH]c(/C=C2\C(=O)Nc3ccc(-c4csc(C5CCNCC5)n4)cc32)c1C` [Example 144], the half-maximal inhibitory concentration (IC50) in [6] is 0.7 µM; in test [7] it was 0.52 µM; in test [8], 0.69 µM; in [1], 0.22 µM; in test [9], 2.48 µM. Besides, the activity at 5 µM in [3] (5 uM) was 79%; in test [4] (5 uM), 70%; in test [5] (5 uM), 83%.
Consider `COc1ccc(-c2cccc3c2NC(=O)/C3=C\c2[nH]c(C)cc2C)cn1` [Example 274], for which the IC50 in test [6] was 24.4 µM; in [7], 28.3 µM; in test [8], 28.4 µM; in test [9], 43.4 µM. For the same molecule, the activity at 5 µM in test [3] (5 uM compound, Western blot) is 91%; in [4] (5 uM compound, Western blot), 63%; in test [5] (5 uM compound, Western blot), 59%.
With `Cc1cc(C)c(/C=C2\C(=O)Nc3c2cccc3-c2cncnc2)[nH]1` [Example 276], the values for the IC50 in [6], in test [7] and in test [8] were 25.2 µM, 26.9 µM and 28.1 µM, respectively. Further, the activity at 5 µM in test [3] (5 uM compound, Western blot) is 113%; in [4] (5 uM compound, Western blot) it was 51%; in [5] (5 uM compound, Western blot) it was 50%.
For the molecule `COc1ncc(-c2cccc3c2/C(=C/c2[nH]c(C)cc2C)C(=O)N3)cn1` [Example 277], the half-inhibitory concentration (IC50) in [6] worked out at 21.1 µM; in test [7], 28.1 µM; in test [8], 35.3 µM. The activity at 5 µM was 145% in test [3] (5 uM compound, Western blot); 77% in test [4] (5 uM compound, Western blot); 75% in [5] (5 uM compound, Western blot).
As for `Cc1cc(C)c(/C=C2\C(=O)Nc3cccc(-c4cncnc4)c32)[nH]1` [Example 278], the half-maximal inhibitory concentration (IC50) in test [6] stood at 16.3 µM; in [7], 16.8 µM; in test [8], 39.7 µM. Besides, the activity at 5 µM in test [3] (5 uM compound, Western blot) was found to be 198%; in test [4] (5 uM compound, Western blot) it was 44%; in test [5] (5 uM compound, Western blot) it was 43%.
With `Cc1cc(C)c(/C=C2\C(=O)Nc3c2cccc3-c2cncc3ccccc23)[nH]1` [Example 279], the half-inhibitory concentration (IC50) in test [6] was 19.7 µM; in [7], 21 µM; in test [8], 25.8 µM. The activity at 5 µM was 108% in test [3] (5 uM compound, Western blot); 86% in test [4] (5 uM compound, Western blot); 83% in test [5] (5 uM compound, Western blot).
`Cc1cc(C)c(/C=C2\C(=O)Nc3c2cccc3-c2ccncc2)[nH]1` [Example 281] showed an IC50 in [6] of 23.5 µM. Besides, the activity at 5 µM in test [3] (5 uM compound, Western blot) is 83%; in test [4] (5 uM compound, Western blot) it was 68%; in test [5] (5 uM compound, Western blot), 65%.

The values above are taken from patent US20190241569A1, “3-(ARYL OR HETEROARYL) METHYLENEINDOLIN-2-ONE DERIVATIVES AS INHIBITORS OF CANCER STEM CELL PATHWAY KINASES FOR THE TREATMENT OF CANCER” (Boston Biomedical, Inc., priority 2013, published 2019).
